By IC50 is commonly meant the point on the concentration scale where inhibition reaches its midpoint.

For test [1], the target named is T1, Tyrosine-protein phosphatase non-receptor type 1 (Homo sapiens, UniProt P18031).
T1 sequence (P18031 whole entry): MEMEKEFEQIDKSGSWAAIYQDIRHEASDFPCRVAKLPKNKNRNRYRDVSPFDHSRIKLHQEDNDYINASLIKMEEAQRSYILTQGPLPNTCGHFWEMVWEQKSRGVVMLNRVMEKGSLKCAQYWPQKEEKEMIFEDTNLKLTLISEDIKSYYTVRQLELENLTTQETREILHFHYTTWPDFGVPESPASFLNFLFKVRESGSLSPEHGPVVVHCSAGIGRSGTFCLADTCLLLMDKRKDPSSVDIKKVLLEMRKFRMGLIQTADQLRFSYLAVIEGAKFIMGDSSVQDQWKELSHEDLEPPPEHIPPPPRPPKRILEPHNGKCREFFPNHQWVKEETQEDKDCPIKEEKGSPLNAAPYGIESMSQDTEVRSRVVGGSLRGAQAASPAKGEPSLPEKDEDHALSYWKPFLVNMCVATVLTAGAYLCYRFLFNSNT
Briefly: PTPN1 Biochemical Assay. As for the experimental part:
Test compounds were dissolved in DMSO, and 10-point serial 3-fold dilution series in DMSO were prepared in Echo Qualified 384-well Polypropylene Microplates (Labcyte, San Jose, CA) (top concentration 50 µM). […] 5 μl of assay buffer was added into the low control. The plate was incubated for 30 minutes at room temperature. Subsequently, 5 μl of 100 µM DiFMUP (6,8-difluoro-4-methylumbelliferyl phosphate) solution (prepared in assay buffer from 10 mM stock in DMSO) was added to the assay plate and incubated for 1 hour at room temperature. For detection, assay plates were read on SpectraMax Microplate Reader (Molecular Devices), with Excitation wavelength=360 nm and Emission wavelength=460 nm.

The target in test [2] is T2, Tyrosine-protein phosphatase non-receptor type 2 (Homo sapiens, UniProt P17706).
T2 sequence (P17706 whole entry): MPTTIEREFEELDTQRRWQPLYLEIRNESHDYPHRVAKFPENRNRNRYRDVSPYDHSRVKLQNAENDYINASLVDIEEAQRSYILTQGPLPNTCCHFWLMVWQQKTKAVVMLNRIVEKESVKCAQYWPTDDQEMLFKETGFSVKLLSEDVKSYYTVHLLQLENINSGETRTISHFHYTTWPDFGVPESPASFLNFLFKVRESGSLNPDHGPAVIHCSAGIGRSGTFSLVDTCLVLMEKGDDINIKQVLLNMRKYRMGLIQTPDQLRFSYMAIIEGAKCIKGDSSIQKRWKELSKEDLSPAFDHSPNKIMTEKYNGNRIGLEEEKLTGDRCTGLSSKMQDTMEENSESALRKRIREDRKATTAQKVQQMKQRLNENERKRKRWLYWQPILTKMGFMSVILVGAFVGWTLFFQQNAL
The test can be described thus: PTPN2 Biochemical Assay. The procedure: Test compounds were dissolved in DMSO, and 10-point serial 3-fold dilution series in DMSO were prepared in Echo Qualified 384-well Polypropylene Microplates (Labcyte, San Jose, CA) (top concentration 50 µM). Assay plates (384-well low volume black plates; Corning #3820, Corning, NY) were prepared by dispensing 50 nL of test compound, and DMSO (for high and low controls) by ECHO acoustic dispenser (Labcyte, San Jose CA). This was followed by addition of 5 μL of 0.2 nM human PTPN2 (1-387) solution (prepared in the assay buffer, 50 mM Tris pH 7.4, 150 mM NaCl, 0.01% Tween20, 0.5 mM dithiothreitol) to all wells except the low control. 5 μl of assay buffer was added into the low control, then the plate was incubated for 30 minutes at room temperature. Subsequently, 5 μl of 100 µM DiFMUP (6,8-difluoro-4-methylumbelliferyl phosphate) solution (prepared in assay buffer from 10 mM stock in DMSO) was added to the assay plate and incubated for 1 hour at room temperature. For detection, assay plates were read on SpectraMax Microplate Reader (Molecular Devices), with Excitation wavelength=360 nm and Emission wavelength=460 nm.

With `Cc1ccc(COc2cc(C(N)=O)cc3c(Br)c(C(F)(F)P(=O)(O)O)sc23)cc1C` [US20250059220, Compound 358], the IC50 in test [1] stood at 106 nM; in test [2], 54.8 nM.

`CS(=O)(=O)CCCOc1cc(C(N)=O)cc2c(C3CC3)c(C(F)(F)P(=O)(O)O)sc12` [US20250059220, Compound 458]: the figures for the IC50 in test [1] and in test [2] were 78.6 nM and 68.1 nM, respectively.

The record behind these values is BindingDB's records for patent US20250059220 (Merck Sharp & Dohme, 2025).
